Test results taken from patent publication US20260256728A1, “TREATMENT FOR ASYMPTOMATIC STARGARDT DISEASE PATIENTS” (priority 2024, published 2026).

Tested on: atrophic retinal lesions in Stargardt disease patients
Assay: TEASE-1 growth rate of atrophic retinal lesions by fundus autofluorescence imaging
Format: in vivo, human
Set-up: relative slower growth rate of atrophic retinal lesions versus control / Percentage Slowing of Atrophic Retinal Lesion Growth Rate: concentration or dose not given beside the values
Method: The Tolerability and Effects of gildeuretinol acetate in Stargardt Disease (Clinical trial group 1, also known as TEASE-1) was a 24-month, multicenter, double-masked, placebo-controlled trial designed to evaluate the efficacy and safety of daily oral gildeuretinol acetate in slowing the growth of atrophic retinal lesions in Stargardt disease patients. The trial was conducted at multiple sites in the United States (NCT02402660).
Patients 12 years or older, clinically diagnosed with Stargardt disease, with at least one ABCA4 mutation, at least one eye presenting with well-demarcated areas of reduced fundus autofluorescence including retinal atrophic lesions, and with any visual acuity, were enrolled.
Patients were randomized to gildeuretinol acetate 14 mg capsules, gildeuretinol acetate 24 mg capsules, or placebo capsules, to be taken once daily for one year. After one year, 50% of randomly selected patients receiving placebo were crossed over in a 1:1 ratio to gildeuretinol acetate 14 mg capsules or gildeuretinol acetate 24 mg capsules for a second year.
Deidentified retinal images of patients not enrolled in the trial were included as a natural history cohort. This natural history cohort comprised patients diagnosed with Stargardt disease of any age, with two or more longitudinal fundus autofluorescence images taken at least four months apart over a maximum period of 2.5 years.
[…] retinal imaging comparing gildeuretinol acetate versus the untreated arm ([…]). Only well-delineated and homogeneous retinal atrophic lesions ≥0.2 mm^2 with a summed area ≥0.5 mm^2 were included in the primary analysis.
The primary endpoint analysis used a linear mixed-effect model (LMEM) with repeated measures, conferring a higher power to detect smaller effects. All observed data, including both eyes, were utilized. Treatment duration was computed as a continuous measure for each visit based on years since randomization. Adjustments for baseline retinal atrophy used the baseline atrophic retinal lesion size as a fixed effect in the LMEM. Additional fixed effects included treatment arm, treatment duration, and interaction between the treatment arm and treatment duration. Random effects included patient, eye, grader to adjust for correlation between eyes within a patient, graders' assessment of an eye, and observations of the same eye over time. A random effect slope term was added to the effect of treatment duration. Patients who crossed over to gildeuretinol acetate after year one were included in the untreated arm from baseline to year one, then in the gildeuretinol acetate arm from […] upon crossing over to gildeuretinol acetate. The full analysis set (FAS) comprised all randomized patients who received at least one dose of the study drug.
[…] All available data between 0 and 24 months was used to compute the slope of each segment. The primary efficacy endpoint was the slope of the second segment. No constraints were imposed on the Y-intercept. All growth rates were calculated on a per-year basis.
No imputations were made for missing data because the LMEM yields valid inferences under the assumption of a missing-at-random mechanism. The two-sided P-value of the primary efficacy endpoint was calculated using Kenward-Roger's method for handling denominator degrees of freedom and small samples. The goodness of fit of the linear mixed-effect model was provided as R-squared (R^2). Analyses were conducted in R (R Core Team, 2020). Prespecified, unadjusted sensitivity analyses of the primary efficacy endpoint included growth rates of untransformed areas of retinal atrophy and growth rates using a single-slope from baseline until the last available visit. Post-hoc unadjusted analyses were performed to evaluate the potential contribution of patient characteristics.

Which “Percentage Slowing of Atrophic Retinal Lesion Growth Rate” value (shortened to “Percentage Slowing”) (Crossover patients: 12 months placebo vs. 12 months treatment) does the source give for `[2H]C([2H])([2H])C(/C=C/C=C(C)/C=C/C1=C(C)CCCC1(C)C)=C\CO` [Gildeuretinol, C20D3-retinol] here?
The value was 21%.

And the “Percentage Slowing” value (Excluding 2 natural history cases <18 years old, 9 natural histories >60 years old)?
Its value is 21%.

What about the “Percentage Slowing” value (Excluding 3 randomized patients with one confirmed mutation) of the same molecule?
The value was 20%.

And the “Percentage Slowing” value (Excluding 13 natural history cases without any confirmed ABCA4 mutations and 6 natural histories with one confirmed mutation)?
The value was 20%.

And the “Percentage Slowing” value (Excluding 16 natural histories with only two follow up time points)?
The value was 20%.

What about the “Percentage Slowing” value (Excluding natural history, randomized patients only, one slope (mm^2)) of the same molecule?
The value was 30%.

And the “Percentage Slowing” value (Excluding natural history, randomized patients only, two slopes (mm^2))?
The value was 23%.

And the “Percentage Slowing” value (Using a single-slope from 0 to 24 months (mm^2))?
Its value is 31%.

What about the “Percentage Slowing” value (Using untransformed areas of atrophic lesions (mm^2)) of the same molecule?
Its value is 28%.
